According to patent publication US9388142B2, “Quinazolinone derivatives as PARP inhibitors” (MERCK PATENT GMBH, priority 2012, dated 2016):

Columns and labels:
tankyrase 1/2 = test: Cellular inhibition of tankyrase: increase of Axin2 level in DLD1 cells (Luminex); format: cell-based; details: read-out: EC50 tankyrase 1/2 (cell assay), 24 hours
Description: Measurement of Cellular Inhibition of Tankyrase
Cells of the colon carcinoma cell line DLD1 are plated in 96 well plates with 1.5×10^4 cells per well. Next day, cells are treated with a serial dilution of test compound in seven steps as triplicates with a final DMSO concentration of 0.3%. After 24 hours, cells are lysed in lysis buffer (20 mM Tris/HCl pH 8.0, 150 mM NaCl, 1% NP40, 10% Glycerol) and lysates are cleared by centrifugation through a 96 well filter plate (0.65 μm). […] The amount of isolated Axin2 protein is determined in a Luminex^200 machine (Luminex Corporation) according to the manufacturer's instruction by counting 100 events per well. […] For analysis, the obtained data are normalized against the untreated solvent control and fitted for determination of the EC50 values using the Assay Explorer software (Accelrys).

[1] = target: GST-tagged Tnks-2 (873-1166 aa) (Homo sapiens, UniProt Q9H2K2); test: biochemical
Description: (§1) Description of the TNKS1 and TNKS2 ELISA Assay
(§2) Then the activity assay with biotinylated NAD is performed in the absence/presence of the compounds. During the enzymatic reaction GST tagged TNKS transfers biotinylated ADP-ribose to itself from biotinylated NAD as co-substrate. For the detection streptavidin-HRP conjugate is added that binds to the biotinylated TNKS and is thereby captured to the plates. The amount of biotinylated resp. autoparsylated TNKS is detected with a luminescence substrate for HRP. The level of the luminescence signal correlates directly with the amount of autoparsylated TNKS and therefore with activity of TNKS.
(§3) The activity ELISA is performed in 384 well Glutathione coated microtiter plates (Express capture Glutathione coated plate, Biocat, Heidelberg, Germany). The plates are pre-equilibrated with PBS. […] The plates are washed 3 times with PBS-Tween-20. The wells are blocked by incubation at room temperature for 20 minutes with 50 μl blocking buffer (PBS, 0.05% Tween-20, 0.5% BSA). Afterwards the plates are washed 3 times with PBS-Tween-20. […] The reaction is stopped by 3 times washing with PBS-Tween-20. For the detection 50 μl of 20 ng/μl Streptavidin, HRP conjugate (MoBiTec, Gottingen, Germany) in PBS/0.05% Tween-20/0.01% BSA are added and the plates are incubated for 30 minutes at room temperature. After three times washing with PBS-Tween-20 50 μl of SuperSignal ELISA Femto Maximum sensitivity substrate solution (ThermoFisherScientific (Pierce), Bonn, Germany) are added. Following a 1 minute incubation at room temperature luminescence signals are measured with an Envision multimode reader (Perkin Elmer LAS Germany GmbH) at 700 nm. The full value used is the inhibitor-free reaction. […] The inhibitory values (IC50) are determined using either the program Symyx Assay Explorer® or Condosseo® from GeneData.

[2] = target: GST-tagged Tankyrase-2 (873-1166 aa) (Homo sapiens, UniProt Q9H2K2); test: biochemical
Text: (§4) aq (aqueous), h (hour), g (gram), L (liter), mg (milligram), MHz (Megahertz), min. (minute), mm (millimeter), mmol (millimole), mM (millimolar), m.p. (melting point), eq (equivalent), mL (milliliter), L (microliter), ACN (acetonitrile), AcOH (acetic acid), CDCl3 (deuterated chloroform), CD3OD (deuterated methanol), CH3CN (acetonitrile), c-hex (cyclohexane), DCC (dicyclohexyl carbodiimide), DCM (dichloromethane), DIC (diisopropyl carbodiimide), DIEA (diisopropylethyl-amine), DMF (dimethylformamide), DMSO (dimethylsulfoxide), DMSO-d6 (deuterated dimethylsulfoxide), EDC (1-(3-dimethyl-amino-propyl)-3-ethylcarbodiimide), ESI (Electro-spray ionization), EtOAc (ethyl acetate), Et2O (diethyl ether), EtOH (ethanol), HATU (dimethylamino-([1,2,3]triazolo[4,5-b]pyridin-3-yloxy)-methylene]-dimethylammonium hexafluorophosphate), HPLC (High Performance Liquid Chromatography), i-PrOH (2-propanol), K2CO3 (potassium carbonate), LC (Liquid Chromatography), MeOH (methanol), MgSO4 (magnesium sulfate), MS (mass spectrometry), MTBE (Methyl tert-butyl ether), NaHCO3 (sodium bicarbonate), NaBH4 (sodium borohydride), NMM (N-methyl morpholine), NMR (Nuclear Magnetic Resonance), PyBOP (benzotriazole-1-yl-oxy-trispyrrolidino-phosphonium hexafluorophosphate), RT (room temperature), Rt (retention time), SPE (solid phase extraction), TBTU (2-(1-H-benzotriazole-1-yl)-1,1,3,3-tetramethyluromium tetrafluoro borate), TEA (triethylamine), TFA (trifluoroacetic acid), THF (tetrahydrofuran), TLC (Thin Layer Chromatography), UV (Ultraviolet). Description of the In Vitro Assays Abbreviations: GST=Glutathione-S-transferase FRET=Fluorescence resonance energy transfer HTRF®=(homogenous time resolved fluorescence) HEPES=4-(2-hydroxyethyl)-1-piperazine ethanesulfonic acid buffer DTT=Dithiothreitol BSA=bovine serum albumin CHAPS=detergent; CHAPS=3[(3-cholamidopropyl)dimethylammonio]-1-propanesulfonate Streptavidin-XLent® is a high grade streptavidin-XL665 conjugate for which the coupling conditions have been optimized to yield a conjugate with enhanced performances for some assays, particularly those requiring high sensitivity.
(§5) The autoparsylation assay is run in two steps: the enzymatic reaction in which GST-tagged Tankyrase-1, resp Tankyrase-2 transferred biotinylated ADP-ribose to itself from biotinylated NAD as co-substrate and the detection reaction where a time resolved FRET between cryptate labelled anti-GST bound to the GST tag of the enzyme and Xlent® labelled-streptavidin bound the biotin-parsylation residue is analysed. The autoparsylation activity was detectable directly via the increase in HTRF signal.
(§6) The autoparsylation assay is performed as 384-well HTRF® (Cisbio, Codolet, France) assay format in Greiner low volume nb 384-well microtiter plates and is used for high throughput screen. […] The reaction is stopped by the addition of 1 μl 50 mM EDTA solution. […] The ratio of the emission signals is determined. The full value used is the inhibitor-free reaction. […] The inhibitory values (IC50) are determined using either the program Symyx Assay Explorer® or Condosseo® from GeneData.

[3] = target: T1, GST-tagged Tankyrase-1 (1023-1327 aa) (Homo sapiens, UniProt O95271); test: biochemical; details: read-out: IC50 tankyrase 1 (enzyme assay)
T1 construct: GST-tagged Tankyrase-1 (1023-1327 aa)
Text: as §4, §5, §6

[4] = target: T2, GST-tagged Tnks-1 (1023-1327 aa) (Homo sapiens, UniProt O95271); test: TNKS1 activity ELISA (autoparsylation assay); format: biochemical; details: read-out: IC50 TNKS1 ELISA
T2 construct: GST-tagged Tnks-1 (1023-1327 aa, prepared in-house); made in house
Description: as §1, §2, §3

Sequence of GST-tagged Tnks-2 (873-1166 aa) (Q9H2K2 873-1166): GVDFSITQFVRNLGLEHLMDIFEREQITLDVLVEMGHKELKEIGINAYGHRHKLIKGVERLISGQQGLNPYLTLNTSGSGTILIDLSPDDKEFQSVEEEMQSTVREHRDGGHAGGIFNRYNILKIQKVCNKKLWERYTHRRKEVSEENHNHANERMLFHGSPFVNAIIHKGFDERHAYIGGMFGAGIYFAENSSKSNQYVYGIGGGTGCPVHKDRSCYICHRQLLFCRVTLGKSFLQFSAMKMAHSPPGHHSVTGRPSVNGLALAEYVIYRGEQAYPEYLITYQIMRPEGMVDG
Sequence of GST-tagged Tankyrase-2 (873-1166 aa) (Q9H2K2 873-1166): as above
T1 sequence (O95271 1023-1327): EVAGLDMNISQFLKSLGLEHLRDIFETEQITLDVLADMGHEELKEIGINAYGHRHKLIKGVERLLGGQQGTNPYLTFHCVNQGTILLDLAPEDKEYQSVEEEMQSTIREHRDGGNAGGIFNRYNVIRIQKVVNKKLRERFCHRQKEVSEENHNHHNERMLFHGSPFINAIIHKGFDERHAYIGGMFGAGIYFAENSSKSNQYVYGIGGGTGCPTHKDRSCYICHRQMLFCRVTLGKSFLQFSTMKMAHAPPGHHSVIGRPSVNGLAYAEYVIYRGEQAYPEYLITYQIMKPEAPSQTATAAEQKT
T2 sequence (O95271 1023-1327): as above

SMILES	EC50 (tankyrase 1/2)	IC50 [1]	IC50 [2]	IC50 [3]	IC50 [4]
O=c1[nH]c(-c2ccc(C3(O)CCCC3)cc2)nc2ccc(F)cc12 [Compound A16, 6-fluoro-2-[4-(1-hydroxycyclopentyl)phenyl]-3H-quinazolin-4-one]	300 to 3000 nM	< 300 nM	300 to 3000 nM	< 300 nM	< 300 nM
Cc1cc(F)cc2c(=O)[nH]c(-c3ccc(N4CCC(CO)CC4)cc3)nc12 [Compound A31, 6-fluoro-2-[4-(4-hydroxymethyl-piperidin-1-yl)-phenyl]-8-methyl-3H-quinazolin-4-one]	< 300 nM	< 300 nM	300 to 3000 nM	300 to 3000 nM	< 300 nM
CC(C)(O)c1ccc(-c2nc3c(F)cc(F)c(F)c3c(=O)[nH]2)cc1 [Compound A26, 5,6,8-trifluoro-2-[4-(1-hydroxy-1-methyl-ethyl)-phenyl]-3H-quinazolin-4-one]	< 300 nM	< 300 nM	300 to 3000 nM	< 300 nM	< 300 nM
Cc1cc(F)cc2c(=O)[nH]c(-c3ccc(N4CCC(O)CC4)cc3)nc12 [Compound A29, 6-fluoro-2-[4-(4-hydroxy-piperidin-1-yl)-phenyl]-8-methyl-3H-quinazolin-4-one]	< 300 nM	< 300 nM	300 to 3000 nM	300 to 3000 nM	< 300 nM
CCC(O)(CC)c1ccc(-c2nc3ccc(F)cc3c(=O)[nH]2)cc1 [Compound A14, 2-[4-(1-ethyl-1-hydroxy-propyl)phenyl]-6-fluoro-3H-quinazolin-4-one]	< 300 nM	< 300 nM	300 to 3000 nM	< 300 nM	< 300 nM
